How the values were obtained:
γH2AX = test: Western blot, γH2AX; format: cell-based, human; conditions: SGC-7901, 1, 2 and 4 μM, 48 h
Protocol: (§1) An equivalent volume of 5 × SDS-sample buffer was added to cell lysates and boiled for 10 min. The supernatants were subjected to electrophoresis on SDS-PAGE gels and transferred to PVDF membrane by using a Bio-Rad apparatus. Membranes were blocked for 3 h at room temperature in TBST containing 5% non-fat dried milk and probed overnight at 4 °C with antibodies. CyclinD1 (abcam, ab134175, 1:10000), CDC25A (abcam, ab156574, 1:1000), CDC25C (abcam, ab32051, 1:1000), bcl-2 (abcam, ab32124,1:1000), bax (abcam, ab32503, 1:1000), PARP (abcam, ab191217, 1:1000), γH2AX (abcam, ab81299, 1:5000), dyskerin (abcam, ab156877, 1:1000), NHP2 (abcam, ab180498, 1:1000), NOP10 (abcam, ab133726, 1:1000) antibody was performed with rabbit primary antibody. Otherwise, β-actin (ZSGB-BIO, 1:1000) detection was performed with mouse primary antibody which was served as internal controls. Protein bands of β-actin was visualised using peroxidase-labeled goat anti-mouse and others were visualised using peroxidase-labeled goat anti-rabbit secondary antibody (1:5000 dilution, 1 h, room temperature), and the protein expression signals were detected by the BeyoECL Plus (Beyotime).

[1] = tested on: human liver cancer cell HepG2; test: MTT anticancer assay, HepG2; format: cell-based; conditions: 48 h exposure, mean ± SD, dash = footnote d 'None'
Protocol: (§2) The MTT was purchased from Sigma. Cell Cycle Analysis Kit and Apoptosis Analysis Kit were purchased from Bestbio (China). Mitochondrial membrane potential assay kit with JC-1 was purchased from Beyotime (China). All the materials were used as received without further purification unless noted specifically. The cell culture was maintained on DMEM medium (Hyclone, US) supplemented with 10% fetal bovine serum (Sijiqing, China), 100 U/mL penicillin and 100 µg/mL streptomycin in 25-cm^2 culture flasks at 37 °C humidified atmosphere with 5% CO2. Drugs were dissolved in DMSO and filtered through 0.22-µm pore-size filter units before addition to cell line appropriate media. When tumor cells were grown to log phase, diluting to 5 × 10^4 cells mL^−1 with the complete medium, 100 µL of the obtained cell suspension was added to each well of 96-well culture plates. The subsequent incubation was performed at 37 °C, 5% CO2 atmosphere for 48 h before subjecting to anti-proliferation assessment. After 48-h exposure period, 20 µL of PBS containing 5 mg·mL^−1 of MTT was added to each well. After 4 h, the medium was replaced by 150 µL DMSO to dissolve the purple formazan crystals produced. The absorbance at 492 nm of each well was measured on an ELISA plate reader. The data represented the mean of three experiments in triplicate and were expressed as means ± SD. The IC50 value was defined as the concentration at which 50% of the cells could survive. The following human tumor cell lines were used in the assay: human gastric cancer cells SGC-7901, human liver cancer cell SMMC-7721 and HepG2, human cervical cancer cell Hela and human glioma cell U87.

[2] = tested on: DEN-induced rat hepatic tumor; test: In vivo tumor model, DEN-induced rat hepatic tumor (HE histopathology); conditions: DEN-induced SD rats, 50 mg·kg−1 orally once a day, 10 weeks
Protocol: SD rats, male, 120 ∼ 160 g. 120 rats were divided randomly into two groups containing 12 normal rats and 108 DEN model rats. Rats were gavaged daily with DEN 8 mg/kg, once a day, 6 days a week. Normal saline rats were given the same volume, molding to 10 weeks. 60 model rats were randomly divided into five groups, 12 rats in each group, continued to give DEN; normal rats were given normal saline, molding to 16 week, stopped giving DEN. Compound 5i treatment group from the 10th week, 50 mg·kg^−1 was orally given, once a day, for 10 consecutive weeks. Similar parts of left lobe of liver were taken and fixed by 4% polyformaldehyde solution, embedded in paraffin, sliced and HE stained, for histopathological observation.

PARP = test: Western blot, PARP; format: cell-based, human; conditions: SGC-7901, 1, 2 and 4 μM, 48 h
Protocol: as §1

dyskerin = test: Western blot, dyskerin; format: cell-based, human; conditions: SGC-7901, 1, 2 and 4 μM, 48 h
Protocol: as §1

[3] = tested on: human gastric cancer cells SGC-7901; test: MTT anticancer assay, SGC-7901; format: cell-based
Protocol: as §2, with “The absorbance at 492 nm of each well was measured on an ELISA plate reader.” left out, “SD.” for “SD. The IC50 value was defined as the concentration at which 50% of the cells could survive. The following human tumor cell lines were used in the assay: human gastric cancer cells SGC-7901, human liver cancer cell SMMC-7721 and HepG2, human cervical cancer cell Hela and human glioma cell U87.”

CDC25C = test: Western blot, CDC25C; format: cell-based, human; conditions: SGC-7901, 1, 2 and 4 μM, 48 h
Protocol: as §1

[4] = tested on: human normal gastric mucosa cell (GES-1); test: Proliferative inhibition of human normal cell (MTT); format: cell-based; conditions: GES1; MTT, human normal gastric mucosa cell; read-out: GES-1 IC50
Source text: In order to determine the selective cell toxicity of selected compounds. We subsequently conducted a proliferative inhibition assay with human normal gastric mucosa cell (GES-1).

CDC25A = test: Western blot, CDC25A; format: cell-based, human; conditions: SGC-7901, 1, 2 and 4 μM, 48 h
Protocol: as §1

NOP10 = test: Western blot, NOP10; format: cell-based, human; conditions: SGC-7901, 1, 2 and 4 μM, 48 h
Protocol: as §1

SGC-7901 cells = test: Annexin V-FITC/PI apoptosis analysis by flow cytometry; format: cell-based, human; conditions: 48 h, control 3.06%
Protocol: Apoptosis was detected by flow cytometric analysis of annexin V staining. Annexin V-FITC/PI assay was performed according to previously described. First, adherent SGC-7901 cells were harvested and suspended in the annexin-binding buffer (1 × 10^6 cells/mL). Then, cells were incubated with V-FITC buffer and incubated with annexin V-FITC for 15 min and then stained by PI for 5 min at 4 °C in the dark, immediately analyzed by flow cytometry. The data are presented as biparametric dot plots showing PI red fluorescence versus annexin V-FITC green fluorescence.

human glioma cell U87 = test: MTT anticancer assay, U87; format: cell-based; conditions: 48 h exposure, mean ± SD, dash = footnote d 'None'
Protocol: as §2

COc1cc(OC)c2c(=O)c(OCCCCN3CCN(C(=O)c4ccncc4)CC3)c(-c3cc(OC)c(OC)c(OC)c3)oc2c1 [Compound 5i, 3-(4-(4-isonicotinoylpiperazin-1-yl)butoxy)-5,7-dimethoxy-2-(3,4,5-trimethoxyphenyl)-4H-chromen-4-one]
expression of γH2AX (western blot) (γH2AX): significantly decrease
IC50 [1]: 4.12 ± 0.51 µM
pathological changes of rat hepatic tumor (HE staining) [2]: significantly improve pathological changes
PARP (western blot) (PARP): reduced
protein level of dyskerin (western blot) (dyskerin): significantly reduced
activity against SGC-7901 cells (in words) [3]: good activity
IC50 ([3]; Homo sapiens, SGC-7901, MTT, 48 h exposure, mean ± SD): 1.35 ± 0.17 µM
expression of CAC25C (western blot) (CDC25C): significantly decrease
IC50 [4]: 3710 ± 330 µM
expression of CDC25A (western blot) (CDC25A): significantly decrease
NOP10 protein level (western blot) (NOP10): no significant changes
Apoptosis ratio (SGC-7901 cells; SGC-7901, 1 µM): 12.47%
Apoptosis ratio (SGC-7901 cells; SGC-7901, 2 µM): 26.3%
Apoptosis ratio (SGC-7901 cells; SGC-7901, 4 µM): 48.7%
IC50 (human glioma cell U87): 2.5 ± 0.11 µM

Source: paper PMC6104605, “Discovery of new chromen-4-one derivatives as telomerase inhibitors through regulating expression of dyskerin” (Journal of Enzyme Inhibition and Medicinal Chemistry, 2018)
